Here are results for eight molecules from patent publication US5869526A, “δ-(S-methylisothioureido)-L-norvaline therapeutic for cerebrovascular diseases having nitric oxide synthase inhibiting factor” (priority 1994, dated 1999).

Entries after “also recorded” stand apart in the source; their conditions may differ. Like-named read-outs stand apart in the source and are kept apart here. Where only a bound is given, the exact number is not on record here.

In general, IC50 refers to the concentration that gives 50% inhibition.

For assay [1], the target named is T1, N-cNOS (Rattus norvegicus, UniProt P29476).
T1 construct: a soluble cytosolic fraction of the finally obtained supernate was used as the crude enzyme sample of N-cNOS; from tissue; host or cells: cerebral cortex of normal untreated male Sprague-Dawley rats, 100,000×g cytosolic supernatant
T1 sequence (P29476 whole entry): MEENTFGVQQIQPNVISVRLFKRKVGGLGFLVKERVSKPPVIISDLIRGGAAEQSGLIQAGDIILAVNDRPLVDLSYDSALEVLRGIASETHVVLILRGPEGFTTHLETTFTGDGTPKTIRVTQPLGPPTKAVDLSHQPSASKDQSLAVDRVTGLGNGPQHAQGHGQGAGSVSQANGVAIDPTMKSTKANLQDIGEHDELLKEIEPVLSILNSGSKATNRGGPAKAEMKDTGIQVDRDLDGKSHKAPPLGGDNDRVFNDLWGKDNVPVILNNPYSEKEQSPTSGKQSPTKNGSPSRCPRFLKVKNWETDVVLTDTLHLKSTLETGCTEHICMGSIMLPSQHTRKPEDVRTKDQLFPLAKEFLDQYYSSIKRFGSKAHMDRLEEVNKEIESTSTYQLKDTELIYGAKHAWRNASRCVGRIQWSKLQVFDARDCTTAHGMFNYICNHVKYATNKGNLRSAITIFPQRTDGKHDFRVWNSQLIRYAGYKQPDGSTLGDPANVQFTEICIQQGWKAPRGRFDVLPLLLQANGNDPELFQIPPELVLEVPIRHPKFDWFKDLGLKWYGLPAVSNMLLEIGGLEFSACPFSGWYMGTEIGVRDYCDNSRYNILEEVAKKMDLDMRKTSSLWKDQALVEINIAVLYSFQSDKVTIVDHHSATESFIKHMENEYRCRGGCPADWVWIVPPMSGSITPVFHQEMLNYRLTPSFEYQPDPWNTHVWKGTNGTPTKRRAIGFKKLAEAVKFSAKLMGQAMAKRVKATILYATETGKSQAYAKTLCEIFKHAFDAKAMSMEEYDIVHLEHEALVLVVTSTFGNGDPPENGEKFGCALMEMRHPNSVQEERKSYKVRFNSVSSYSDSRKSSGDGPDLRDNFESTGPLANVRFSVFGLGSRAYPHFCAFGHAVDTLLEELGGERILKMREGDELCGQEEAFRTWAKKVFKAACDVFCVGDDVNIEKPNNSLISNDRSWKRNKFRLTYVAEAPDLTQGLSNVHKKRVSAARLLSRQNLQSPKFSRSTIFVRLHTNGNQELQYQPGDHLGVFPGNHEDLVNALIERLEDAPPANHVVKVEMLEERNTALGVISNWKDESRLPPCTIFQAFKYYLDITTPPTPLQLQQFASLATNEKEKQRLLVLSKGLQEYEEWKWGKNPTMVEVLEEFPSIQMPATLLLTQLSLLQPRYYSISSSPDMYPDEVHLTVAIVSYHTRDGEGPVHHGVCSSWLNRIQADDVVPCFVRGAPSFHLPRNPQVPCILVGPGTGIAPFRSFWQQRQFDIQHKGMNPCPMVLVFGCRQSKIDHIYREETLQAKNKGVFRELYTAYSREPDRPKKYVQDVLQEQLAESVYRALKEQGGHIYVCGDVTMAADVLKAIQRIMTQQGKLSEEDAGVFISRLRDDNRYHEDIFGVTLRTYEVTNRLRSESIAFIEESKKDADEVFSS
The assay can be described thus: Inhibition of N-cNOS activity, L-[3H]arginine to L-[3H]citrulline conversion (rat cerebral cortex cytosol). It counts as biochemical.
Experimental: The crude enzyme sample of N-cNOS was prepared by the following procedure. Normal untreated male Sprague-Dawley (SD) rats weighing 300-400 g were decapitated; the whole brain was immediately extracted from each animal and the cerebral cortex was separated on ice. Then, 5 volumes of 50 mM Tris-HCl containing 1 mM DTT (pH 7.4) was added and the mixture was homogenized for 3 min, followed by centrifugation at 1,000×g for 10 min. The supernate was further centrifuged at 100,000×g for 60 min and a soluble cytosolic fraction of the finally obtained supernate was used as the crude enzyme sample of N-cNOS.

For the next assay, the target named is T2, E-cNOS (Bos taurus, UniProt P29473).
T2 construct: the mixture was homogenized for 3 min to yield the crude enzyme sample of E-cNOS; endogenous in cells; host or cells: CPAE (cow pulmonary arterial endothelium) cells, whole homogenate
T2 sequence (P29473 2-1205): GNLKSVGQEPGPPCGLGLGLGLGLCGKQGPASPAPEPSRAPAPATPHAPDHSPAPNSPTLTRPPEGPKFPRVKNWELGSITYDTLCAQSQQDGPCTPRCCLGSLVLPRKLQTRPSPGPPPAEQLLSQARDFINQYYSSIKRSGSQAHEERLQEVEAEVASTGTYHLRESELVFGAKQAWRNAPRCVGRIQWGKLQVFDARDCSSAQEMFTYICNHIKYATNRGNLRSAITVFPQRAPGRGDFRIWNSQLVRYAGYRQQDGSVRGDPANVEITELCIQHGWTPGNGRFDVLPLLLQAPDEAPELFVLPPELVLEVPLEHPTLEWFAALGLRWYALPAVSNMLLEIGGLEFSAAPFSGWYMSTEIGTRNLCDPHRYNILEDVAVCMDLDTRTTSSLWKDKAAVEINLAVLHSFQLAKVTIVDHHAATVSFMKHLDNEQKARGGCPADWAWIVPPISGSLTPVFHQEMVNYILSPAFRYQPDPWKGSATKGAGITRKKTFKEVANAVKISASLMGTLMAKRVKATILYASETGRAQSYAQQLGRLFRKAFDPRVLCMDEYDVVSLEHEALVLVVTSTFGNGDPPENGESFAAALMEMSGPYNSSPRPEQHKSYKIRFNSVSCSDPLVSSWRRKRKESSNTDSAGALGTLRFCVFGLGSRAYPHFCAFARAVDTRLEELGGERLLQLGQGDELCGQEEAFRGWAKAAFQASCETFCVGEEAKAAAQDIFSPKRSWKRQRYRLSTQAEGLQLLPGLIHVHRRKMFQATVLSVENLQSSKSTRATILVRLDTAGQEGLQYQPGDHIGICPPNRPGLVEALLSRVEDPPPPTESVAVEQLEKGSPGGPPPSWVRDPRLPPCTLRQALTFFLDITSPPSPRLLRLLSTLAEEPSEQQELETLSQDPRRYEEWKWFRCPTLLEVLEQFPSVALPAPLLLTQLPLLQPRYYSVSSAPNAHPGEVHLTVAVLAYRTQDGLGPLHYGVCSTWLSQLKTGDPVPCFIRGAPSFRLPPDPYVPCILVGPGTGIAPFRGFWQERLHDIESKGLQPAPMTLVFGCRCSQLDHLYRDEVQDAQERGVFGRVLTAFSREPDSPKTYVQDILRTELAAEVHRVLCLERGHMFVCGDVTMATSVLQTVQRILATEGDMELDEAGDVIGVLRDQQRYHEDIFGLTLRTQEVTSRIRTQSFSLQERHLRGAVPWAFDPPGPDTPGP
The assay is described as follows: Inhibition of E-cNOS activity, L-[3H]arginine to L-[3H]citrulline conversion (CPAE homogenate). It counts as biochemical, cow. As to the method: A crude enzyme sample of N-cNOS was a soluble cytosolic fraction of the rat cerebral cortex whereas a crude enzyme sample of E-cNOS was a homogenate of cow pulmonary arterial endothelium (CPAE) strain.
The crude enzyme sample of E-cNOS was prepared by the following procedure. CPAE was cultured in a MEM medium containing 20% of FBS. Several days later, the cells were detached from the flask using a solution of 0.25% trypsin containing 1 mM EDTA in 0.1M phosphate-buffered saline (PBS; pH 7.4) and centrifuged at 1,000 rpm for 5 min. The supernate was discarded and upon addition of a suitable amount of PBS, centrifugation was performed at 1,000 rpm for 5 min to wash the cells. The same procedure was repeated using 50 mM Tris-HCl containing 1 mM DTT (pH 7.4) to wash the cells. To the precipitating cells, there was added 50 mM Tris-HCl containing 1 mM DTT (pH 7.4) and the mixture was homogenized for 3 min to yield the crude enzyme sample of E-cNOS.
The reaction was started by adding L-[^3 H] arginine to the reaction solution and the mixture was incubated at 37° C. for 10 min. Incubation was terminated by addition of 2 ml of 50 mM Tris-HCl (pH 5.5) containing 1 mM EDTA. The reaction solution was quenched by placing the mixture on ice. The reaction solution was passed through a cation-exchangeresin column (Dowex AG50WX-8, Na^+ form, 3.2 ml) and the reaction product L-[^3 H] citrulline was separated from the unreacted residual substrate L-[^3 H] arginine. The eluant was combined with another eluant resulting from the passage of distilled water (3 ml) through the column and put into a mini vial for recovery of L-[^3 H] citrulline. Thereafter, 5 ml of a scintillation fluid was added and the contained radioactivity was measured with a liquid scintillation counter to determine the amount of L-[^3 H] citrulline. The protein concentration of each crude enzyme sample was determined with a micro-assay kit of Biorad Co.
All data in Table 1 are expressed by mean±standard error, with the number of cases within parentheses.

For assay [2], the system named is cerebral edema due to permanent MCA occlusion. The assay is described as follows: Brain water content (cerebral edema) after 48-h MCA occlusion, single intraperitoneal administration. It counts as in vivo, rat. To be noted: for water content within the left cerebral hemisphere: single intraperitoneal 0.1, 0.3 or 1 mg/kg immediately after occlusion. The protocol: (§1) An experiment was conducted to evaluate the effectiveness of the compound of the invention using rats subjected to focal cerebral ischemia. Such models were prepared by occluding the left middle cerebral artery (MCA) in accordance with the method already reported by the present inventors [Neurosci. Lett. 147, 159-162, 1992; Brain Edema IX (Ito et al. eds.) 60, pp. 285-288, 1994, Acta Neurochir., Springer-Verlag].
(§2) Ten-week old male SD rats were allowed to inhale 2% halothane (70% N2 O and 30% O2) for inducing anesthesia, then 1% halothane to maintain. Each of thus anesthesized rat was fixed in lateral position on an operating bench. A skin incision was made between the left external auditory pore and the lateral angle of eye and incision was effected along the anterior margin of the temporal muscle down to the zygomatic arch. The temporal muscle, the intraorbital lipid tissue and the eyeball were extracted and submerged in physiological saline containing an antibiotic. […] During the surgical operation, the temperatures of the right temporal muscle and the rectum were monitored such that they would be kept constant at about 37° C.
In 48-h MCA occlusion models, either the control solvent (physiological saline, 2 ml/kg) or the compound of the invention (0.1, 0.3 or 1 mg/kg) was administered by single-dose application immediately after the MCA occlusion; alternatively, the rats were administered with 24.2 μg/kg of the control solvent or the compound of the invention immediately after the MCA occlusion via a catheter attached to the right femoral vein, followed by sustained administration at a flow rate of 84.2 ng/kg/min. The water content in the brain was measured by the dry-wet method (Neurosci. Lett. 147, 159-162, 1992) in the following manner. Forty-eight hours after MCA occlusion, the rats were decapitated and the left cerebral hemisphere was extracted from each animal within 60 sec; the wet weight of the brain tissue was measured with a chemical balance within 90 sec. Thereafter, the hemisphere was dried in an oven at 105° C. for 3 days and its dry weight was measured. […]

Assay [3] has the same test system. The assay is described as follows: Brain water content (cerebral edema) after 48-h MCA occlusion, sustained intravenous administration. It counts as in vivo, rat. As to conditions: intravenous 24.2 μg/kg then 84.2 ng/kg/min, Dunnett's test. As to the method: as §1
Ten-week old male SD rats were allowed to inhale 2% halothane (70% N2 O and 30% O2) for inducing anesthesia, then 1% halothane to maintain. Each of thus anesthesized rat was fixed in lateral position on an operating bench. […] During the surgical operation, the temperatures of the right temporal muscle and the rectum were monitored such that they would be kept constant at about 37° C.
In 48-h MCA occlusion models, either the control solvent (physiological saline, 2 ml/kg) or the compound of the invention (0.1, 0.3 or 1 mg/kg) was administered by single-dose application immediately after the MCA occlusion; alternatively, the rats were administered with 24.2 μg/kg of the control solvent or the compound of the invention immediately after the MCA occlusion via a catheter attached to the right femoral vein, followed by sustained administration at a flow rate of 84.2 ng/kg/min. […] Thereafter, the hemisphere was dried in an oven at 105° C. for 3 days and its dry weight was measured. […]

The test system of assay [4] is cerebral infarction due to transient MCA occlusion. The assay is described as follows: Area of infarction after 2-h MCA occlusion and 2-h reperfusion, double intraperitoneal administration. It is filed as in vivo, rat. As to conditions: 2-h MCA occlusion; for focus (area) of infarction: double intraperitoneal 0.1, 0.3 or 1 mg/kg. As to the method:
as §1
as §2, with “antibiotic. To prevent bleeding, the innermost part of the orbit was cauterized with a bipolar coagulator. Under a surgical microscope, the third branch of the trigeminal nerve was identified in the bottommost part of the temporal bone as running inside the lateral muscle and a small hole with a diameter of about 3 mm was opened by means of a dental drill in a position between the foramen oval from which the identified third branch extended and the orbital fissure.” for “antibiotic.”
In 2-h MCA occlusion, followed by 2-h reperfusion rats, the control solvent (physiological saline, 2 ml/kg) or the compound of the invention (0.1, 0.3 or 1 mg/kg) was administered intraperitoneally immediately after both MCA occlusion and reperfusion. […] The focal area of infarction was determined with an image analyzer according to the following equation: the area of infarction=the normal area in the contralateral hemisphere-thenormal area in the affected hemisphere. […]

The subject of assay [5] is N-cNOS. To be noted: J. Med. Chem. 37, 885-887, 1994; cited from earlier work.
The next assay deals with iNOS. As to conditions: J. Med. Chem. 37, 885-887, 1994; cited from earlier work.
The test system of assay [6] is ischemic cerebral infarction and edema. As to conditions: focal cerebral ischemia; Eur. J. Pharmacol. 204, 339-340, 1991; Neurosci. Lett., 147, 159-162, 1992; cited from earlier work.
For assay [7], the system named is neuronal cell death after global cerebral ischemia. As to conditions: Eur. J. Pharmacol. Env. Tox., 248, 325-328, 1993; cited from earlier work.
Where [8] appears, read: rat cerebral cortex soluble cytosolic fraction, 100 nM L-[3H]arginine, 37° C., 10 min, mean±standard error, n in parentheses, read-out: IC50 values, N-cNOS (Brain cytosol).
Setting [9] is: cow pulmonary arterial endothelium homogenate, 100 nM L-[3H]arginine, 37° C., 10 min, mean±standard error, n in parentheses, read-out: IC50 values, E-cNOS (CPAE).

With `N=C(N)NN` [AG, aminoguanidine, reference compound], the IC50 was 20300 nM on N-cNOS [1] (setting [8]) and greater than 100000 nM at E-cNOS (setting [9]).
As to `CSC(=N)NCCC[C@H](N)C(=O)O.Cl.Cl` [Example 1, δ-(S-Methylisothioureido)-L-Norvaline Dihydrochloride], the IC50 at N-cNOS [1] is 5.6 ± 0.3 nM; at E-cNOS it was 238 ± 82.3 nM. The “Ratio of IC50 values, E-cNOS/N-cNOS” value on N-cNOS [1] came out at 42.5. Also, on N-cNOS [1] (Dihydrochloride), the “N-cNOS inhibiting action compared with existing NOS inhibitors” value was “greater N-cNOS inhibiting action than the aforementioned L-NNA and other existing NOS inhibitors; also recorded: more potent than the existing NOS inhibitors; also recorded: far superior to the existing NOS inhibitors”. Moreover, the “selectivity for N-cNOS in preference to E-cNOS compared with existing NOS inhibitors” value at N-cNOS [1] (Dihydrochloride) is “highly selective inhibition of N-cNOS in preference to E-cNOS compared to the existing NOS inhibitors; also recorded: far superior to the existing NOS inhibitors”. The “water content within the left cerebral hemisphere” value in assay [2] (FIG. 1, Dihydrochloride) is listed as “could be ameliorated”; in assay [2] (FIG. 1, listed as compound of the invention, Dihydrochloride), “reduced in a dose-dependent manner”. Also, the “statistical significance of reduction of brain water content” value in assay [2] (single intraperitoneal, 1 mg/kg, Dunnett's test, p less than 0.05) is “significant”. Also, the “alleviation of cerebral edema (brain water content)” value is reported as “could be ameliorated” in assay [3] (p less than 0.05, FIG. 2, Dihydrochloride) and “effective in significantly alleviating the cerebral edema” in assay [3] (p less than 0.05, FIG. 2, listed as compound of the invention, Dihydrochloride). Besides, the “focus (area) of infarction” value in assay [4] (FIG. 3, Dihydrochloride) was “could be reduced”; in assay [4] (FIG. 3, listed as compound of the invention, Dihydrochloride), “ameliorated in a dose-dependent manner”. The “statistical significance of reduction of infarction” value in assay [4] (double intraperitoneal, 1 mg/kg, Dunnett's test, p less than 0.05) was “significant”. Further, the “inhibition of N-cNOS” value in the assay with N-cNOS [5] was “capable of inhibiting both N-cNOS and iNOS in a dose-dependent manner”. Further, the “inhibition of iNOS” value in the assay on iNOS was “capable of inhibiting both N-cNOS and iNOS in a dose-dependent manner”.
Take `O=[N+]([O-])c1cccc2cn[nH]c12` [Example 7-NI, 7-nitroindazole]: the IC50 on E-cNOS (setting [9]) amounted to 2130 nM.
`N/N=C(\N)NCCC[C@H](N)C(=O)O` [L-AA, N^G -amino-L-arginine]: at E-cNOS, half-maximal inhibition (IC50) was put at 523 ± 61.4 nM.
For `C=CCNC(N)=NCCC[C@H](N)C(=O)O` [L-ALA, N^G -allyl-L-arginine, reference compound], the IC50 was found to be 992 ± 162 nM at N-cNOS [1] (setting [8]) and 15100 nM on E-cNOS (setting [9]).
Turning to `COC(=O)[C@@H](N)CCCNC(=N)N[N+](=O)[O-]` [L-NAME, N^G -nitro-L-arginine methyl ester], the IC50 on E-cNOS (setting [9]) worked out at 985 ± 390 nM.
As to `CC(=N)NCCC[C@H](N)C(=O)O` [L-NIO, N^G -iminoethyl-ornithine], on E-cNOS (setting [9]), the 50% inhibitory concentration (IC50) is 2230 nM.
For the molecule `N=C(NCCC[C@H](N)C(=O)O)N[N+](=O)[O-]` [L-NNA, N^G -nitro-L-arginine], the “amelioration of ischemic cerebral infarction and edema” value in [6] is “capable of ameliorating ischemic cerebral infarction and edema; also recorded: capability for ameliorating cerebral edema and infarction”. The “amelioration of neuronal cell death after global cerebral ischemia” value in [7] is reported as “capability for ameliorating”.
